Data on 28 molecules can be found in patent US20050197350A1, “Novel quinoline, tetrahydroquinazoline, and pyrimidine derivatives and methods of treatment related to the use thereof” (TAISHO PHARMACEUTICAL CO., LTD., priority 2003, published 2005).

The structures appear in SMILES notation. Where a name gives a salt, the structure may show the parent alone.

The first experiment has as its target MCH receptor (Homo sapiens, UniProt Q99705). Put plainly: High throughput functional screening FLIPR/FDSS6000 (intracellular Ca2+ evoked by MCH). The experiment is classed as cell-based. Particulars: FLIPR/FDSS, antagonist activity vs 50 nM MCH; class by percent of control at 10^−7 M or IC50; read-out: class. The source says:
High Throughput Functional Screening: FLIPR™
This assay utilized a non-endogenous, constitutively active version of the MCH receptor.
The concentration of free Ca^2+ in the cytosol of any cell is extremely low, whereas its concentration in the extracellular fluid and endoplasmic reticulum (ER) is very high. Thus, there is a large gradient tending to drive Ca^2+ into the cytosol across both the plasma membrane and ER. The FLIPR™ and FDSS6000™ systems (Molecular Devices Corporation, […] Photonics K.K.) are designed to perform functional cell-based assays, such as the measurement of intracellular calcium for high-throughput screening. The measurement of fluorescent is associated with calcium release upon activation of the Gq-coupled receptors.
Fluorometric Imaging Plate Reader system was used to allow for rapid, kinetic measurements of intracellular fluorescence in 96 well microplates (or 384 well microplates). Simultaneous measurements of fluorescence in all wells can be made by FLIPR or FDSS6000™ every second with high sensitivity and precision. These systems are ideal for measuring cell-based functional assays such as monitoring the intracellular calcium fluxes that occur within seconds after activation of the Gq coupled receptor.
Briefly, the cells are seeded into 96 well at 5.5×10^4 cells/well with complete culture media (Dulbecco's Modified Eagle Medium with 10% fetal bovine serum, 2 mM L-glutamine, 1 mM sodium pyruvate and 0.5 mg/ml G418, pH 7.4) for the assay next day. On the day of assay, the media is removed and the cells are incubated with 100 μl of loading buffer (4 μM Fluo4-AM in complete culture media containing 2.5 mM Probenicid, 0.5 mg/ml and 0.2% bovine serum albumin) in 5% CO2 incubator at 37° C. for 1 hr. The loading buffer is removed, and the cells are washed with wash buffer (Hank's Balanced Salt Solution containing 2.5 mM Probenicid, 20 mM HEPES, 0.5 mg/ml and 0.2% bovine serum albumin, pH 7.4)). One hundred fifty μl of wash buffer containing various concentrations of test compound is added to the cells, and the cells are incubated in 5% CO2 incubator at 37° C. for 30 min. […] 530 nm for 290 second. When antagonist activity of compound is tested, 50 nM of MCH is used.
Use of FLIPR™ and FDSS6000™ can be accomplished by following manufacturer's instruction (Molecular Device Corporation and […] Photonics K.K.).
As for `Cc1cc(N[C@H]2CC[C@@H](NC(=O)c3ccc(OC(F)(F)F)cc3)CC2)nc2ccccc12` [Example 3382, N-{cis-4-[(4-methylquinolin-2-yl)amino]cyclohexyl}-4-(trifluoromethoxy)benzamide], the IC50 was less than 0.05 µM. Turning to `CCN(C(=O)N[C@H]1CC[C@@H](Nc2ncc(C)c(N(C)C)n2)CC1)c1cc(C(F)(F)F)cc(C(F)(F)F)c1` [Example 3354, N-[3,5-bis(trifluoromethyl)phenyl]-N′-(cis-4-{[4-(dimethylamino)-5-methylpyrimidin-2-yl]amino}cyclohexyl)-N-ethylurea], the IC50 is less than 0.05 µM. Regarding `COc1nc(N[C@H]2CC[C@@H](NC(=O)c3ccc(Cl)cc3)CC2)ncc1C` [Example 3276, 4-chloro-N-{cis-4-[(4-methoxy-5-methylpyrimidin-2-yl)amino]cyclohexyl}benzamide], the IC50 is greater than 0.2 µM. `Cc1cnc(N[C@H]2CC[C@@H](C(=O)N[C@H](C)c3ccc(Br)cc3)CC2)nc1N(C)C` [Example 3297, cis-N-[(1R)-1-(4-bromophenyl)ethyl]-4-{[4-(dimethylamino)-5-methylpyrimidin-2-yl]amino}cyclohexanecarboxamide]: the IC50 is 0.05 to 0.2 µM. Take `Cc1cnc(N[C@H]2CC[C@@H](NC(=O)c3cccnc3S(=O)(=O)c3ccc(Cl)cc3)CC2)nc1N(C)C` [Example 3282, 2-[(4-chlorophenyl)sulfonyl]-N-(cis-4-{[4-(dimethylamino)-5-methylpyrimidin-2-yl]amino}cyclohexyl)nicotinamide]: the IC50 is less than 0.05 µM. Regarding `Cc1cnc(N[C@H]2CC[C@@H](NC(=O)COc3cc(C(F)(F)F)ncn3)CC2)nc1N(C)C` [Example 3357, N-(cis-4-{[4-(dimethylamino)-5-methylpyrimidin-2-yl]amino}cyclohexyl)-2-{[6-(trifluoromethyl)pyrimidin-4-yl]oxy}acetamide], the IC50 was greater than 0.2 µM. For the molecule `Cc1ccc(S(=O)(=O)c2ncccc2C(=O)N[C@H]2CC[C@@H](Nc3ncc(C)c(N(C)C)n3)CC2)cc1` [Example 3288, N-(cis-4-{[4-(dimethylamino)-5-methylpyrimidin-2-yl]amino}cyclohexyl)-2-[(4-methylphenyl)sulfonyl]nicotinamide], the IC50 lay within 0.05 to 0.2 µM.

Staying with this experiment, now noted: FLIPR/FDSS, antagonist activity vs 50 nM MCH; class by percent of control at 10^−7 M or IC50; table after the classification; read-out: class.
For `Cc1cc(C(=O)N[C@H]2CC[C@@H](Nc3ccc4ccccc4n3)CC2)ccc1F` [Example 3046, 4-Fluoro-3-methyl-N-[cis-4-(quinolin-2-ylamino)-cyclohexyl]-benzamide hydrochloride], the IC50 is less than 0.05 µM. On the same count and under the same terms, the figure for `Cc1cc(N[C@H]2CC[C@@H](NC(=O)COc3ccc(F)c(Cl)c3)CC2)nc2ccccc12` [Example 3100, 2-(3-Chloro-4-fluoro-phenoxy)-N-[cis-4-(4-methyl-quinolin-2-ylamino)-cyclohexyl]-acetamide hydrochloride] is less than 0.05 µM; for `Cc1cc(C)nc(N[C@H]2CC[C@@H](NC(=O)c3ccc(F)c(F)c3)CC2)n1` [Example 3142, N-[cis-4-(4,6-Dimethyl-pyrimidin-2-ylamino)-cyclohexyl]-3,4-difluoro-benzamide hydrochloride] it is greater than 0.2 µM.

For the molecule `CN(C)c1cc(N[C@H]2CC[C@@H](NCc3ccc(Br)cc3OC(F)(F)F)CC2)nc2ccccc12` [Example 5, N^2-[cis-4-(4-Bromo-2-trifluoromethoxy-benzyl)-amino-cyclohexyl]-N^4,N^4-dimethyl-quinoline-2,4-diamine dihydrochloride], the IC50 is 0.05 to 0.2 µM.

For the molecule `CN(C)c1ccnc(N[C@H]2CC[C@@H](NC(=O)c3ccc(F)c(F)c3)CC2)n1` [Example 3197, N-[cis-4-(4-Dimethylamino-pyrimidin-2-ylamino)-cyclohexyl]-3,4-difluoro-benzamide hydrochloride], the IC50 was 0.05 to 0.2 µM.

With `CN(C)c1cc(N[C@H]2CC[C@@H](NCCc3ccc(Br)cc3OC(F)(F)F)CC2)nc2ccccc12` [Example 6, N^2-{cis-4-[2-(4-Bromo-2-trifluoromethoxy-phenyl)ethylamino]-cyclohexyl}-N^4,N^4-dimethyl-quinoline-2,4-diamine dihydrochloride], the IC50 lay in the range of 0.05 to 0.2 µM. As to `O=C(N[C@H]1CC[C@@H](Nc2cc(C(F)(F)F)c3ccccc3n2)CC1)c1ccc(F)c(F)c1` [Example 3237, 3,4-Difluoro-N-[cis-4-(4-trifluoromethyl-quinolin-2-yl)-amino-cyclohexyl]-benzamide hydrochloride], the IC50 was greater than 0.2 µM. Regarding `CNc1nc(N[C@H]2CC[C@@H](NCc3ccc(Br)cc3OC(F)(F)F)CC2)nc2c1CCCC2` [Example 9, N^2-[cis-4-(4-Bromo-2-trifluoromethoxy-benzyl)amino-cyclohexyl]-N^4-methyl-5,6,7,8-tetrahydro-quinazoline-2,4-diamine dihydrochloride], the IC50 is greater than 0.2 µM. Take `O=C(N[C@H]1CC[C@@H](Nc2ccc3ccccc3n2)CC1)c1cccc(C(F)(F)F)c1` [Example 3050, N-[cis-4-(Quinolin-2-ylamino)-cyclohexyl]-3-trifluoromethyl-benzamide hydrochloride]: the IC50 is less than 0.05 µM. On to `Cc1cc(N[C@H]2CC[C@@H](NC(=O)CNc3ccc(Cl)c(Cl)c3)CC2)nc2ccccc12` [Example 3103, 2-(3,4-Dichloro-phenylamino)-N-[cis-4-(4-methyl-quinolin-2-ylamino)-cyclohexyl]-acetamide dihydrochloride], for which the IC50 lay in the range of 0.05 to 0.2 µM. The same measure, in the same setting: the figure for `Cc1cc(N[C@H]2CC[C@@H](NC(=O)c3cccc(Br)c3)CC2)nc2ccccc12` [Example 3086, 3-Bromo-N-[cis-4-(4-methyl-quinolin-2-ylamino)-cyclohexyl]-benzamide hydrochloride] is less than 0.05 µM; for `Cc1cccc(Oc2ncccc2C(=O)N[C@H]2CC[C@@H](Nc3ccc4ccccc4n3)CC2)c1` [Example 3061, N-[cis-4-(Quinolin-2-ylamino)-cyclohexyl]-2-m-tolyloxy-nicotinamide hydrochloride] it is less than 0.05 µM. Consider `Cc1cc(N[C@H]2CC[C@@H](NC(=O)c3ccc(F)cc3)CC2)nc2ccccc12` [Example 3169, 4-Fluoro-N-[cis-4-(4-methyl-quinolin-2-ylamino)-cyclohexyl]-benzamide hydrochloride], for which the IC50 was less than 0.05 µM. Still for that read-out and setting: the result for `Cc1cc(N[C@H]2CC[C@@H](NC(=O)COc3cccc(Cl)c3)CC2)nc2ccccc12` [Example 3099, 2-(3-Chloro-phenoxy)-N-[cis-4-(4-methyl-quinolin-2-ylamino)-cyclohexyl]-acetamide hydrochloride] reads less than 0.05 µM. As for `O=C(N[C@H]1CC[C@@H](Nc2ccc3ccccc3n2)CC1)c1ccc(Cl)c(Cl)c1` [Example 3040, 3,4-Dichloro-N-[cis-4-(quinolin-2-ylamino)-cyclohexyl]-benzamide hydrochloride], the IC50 is less than 0.05 µM. For the molecule `CN(C)c1ccnc(N[C@H]2CC[C@@H](CNC(=O)Cc3c(Cl)ccc(Cl)c3Cl)CC2)n1` [Example 3220, N-[cis-4-(4-Dimethylamino-pyrimidin-2-ylamino)-cyclohexylmethyl]-2-(2,3,6-trichloro-phenyl)-acetamide hydrochloride], the IC50 is less than 0.05 µM. Same read-out and setting: the figure for `Cc1cc(N[C@H]2CC[C@@H](NC(=O)c3cccc(C(F)(F)F)c3)CC2)nc2ccccc12` [Example 3088, N-[cis-4-(4-Methyl-quinolin-2-ylamino)-cyclohexyl]-3-trifluoromethyl-benzamide hydrochloride] is less than 0.05 µM; for `CN(C)c1ccnc(N[C@H]2CC[C@@H](NC(=O)c3cc(F)cc(Cl)c3)CC2)n1` [Example 3215, 3-Chloro-N-cis-4-(4-dimethylamino-pyrimidin-2-ylamino)-cyclohexyl]-5-fluoro-benzamide hydrochloride] it is 0.05 to 0.2 µM.

As to `O=C(N[C@H]1CC[C@@H](Nc2ccc3ccccc3n2)CC1)c1cccc(Br)c1` [Example 3047, 3-Bromo-N-[cis-4-(quinolin-2-ylamino)-cyclohexyl]-benzamide hydrochloride], the IC50 is less than 0.05 µM.

As for `CN(C)c1ccnc(N[C@H]2CC[C@@H](NC(=O)c3ccc(F)cc3)CC2)n1` [Example 3214, N-[cis-4-(4-Dimethylamino-pyrimidin-2-ylamino)-cyclohexyl]-4-fluoro-benzamide hydrochloride], the IC50 is 0.05 to 0.2 µM. As for `O=C(N[C@H]1CC[C@@H](Nc2cc(Cl)c3ccccc3n2)CC1)c1ccc(F)c(F)c1` [Example 3117, N-[cis-4-(4-Chloro-quinolin-2-ylamino)-cyclohexyl]-3,4-difluoro-benzamide hydrochloride], the IC50 is less than 0.05 µM.
